Assay [1] relates to mouse colorectal cancer cell line CT26.WT. Put plainly: ICD induction evaluation (in vitro): Calreticulin (CRT) on cell surface by flow cytometry. Format: cell-based. The note with it: CT26.WT after 24 hours; compound (A) 4 μM, MTX 1 μM; adjusted MFI. The protocol: In cancer cells treated with different compounds, the expression level of Calreticulin (CRT), which serves as an index of Immunogenic cell death (ICD), was measured. Cells of mouse colorectal cancer cell line CT26.WT were seeded in a 6-well plate and cultured overnight. After the supernatant was removed, the cells were washed twice with PBS. In RPMI1640 culture solution containing 10% FBS (R10), compound (A), (4 μM) or Mitoxantrone (MTX) (1 μM) was added. As a control, DMSO was added in the same amount as that of compound (A) (R10-DMSO). After completion of drug treatment, CT26.WT cells were collected and suspended in PBS, and then, seeded in a 96-well (round bottom) plate at 1×10^6 cells/well. […] The expression level of CRT on the cancer cells was measured by flow cytometry (FACS CantoII: manufactured by Becton, Dickinson and Company). Data were analyzed by FlowJo (manufactured by TreeStar Inc). Note that, LIVE/DEAD Fixable Violet-positive cells were determined as dead cells and excluded from the analysis. The mean fluorescence intensity (MFI) of CRT was calculated. The value, which was obtained by subtracting the MFI of the cells treated with Isotype control from the MFI of stained cells, was determined as the adjusted MFI. […] The results satisfying P<0.05 (two-sided test) were determined as being significant (***: P<0.001, **: P<0.01).
On the technique in general: In flow cytometry, cells or beads pass a laser one at a time.

The subject of assay [2] is spleen cells (CD4-positive / CD8-positive T cells, Tcm). Put plainly: FCM analysis of spleen cells (T cell populations). Format: in vivo, mouse. The note with it: for ratio occupied by Tcm in CD4-positive T cells compared to NCD treatment group: PBS administration (FIG. 29A); for ratio occupied by Tcm in CD8-positive T cells compared to NCD treatment group: PBS administration (FIG. 29B); for ratio occupied by CD4-positive T cells in the whole cells / ratio occupied by CD8-positive T cells in the whole cells: plus anti-SIRPα antibody (5C12) (FIG. 30C). The procedure: From each of the mice used in Example 3, the spleen was excised out and spleen cells were prepared by use of PBS and seeded in a 96-well (round bottom) plate at 1×10^6 cells/well. After centrifugation was carried out at 1200 rpm for 3 minutes, the supernatant was removed. […] (manufactured by Biolegend, Inc.) diluted to 1/20 with PBS was added up to 100 μL/well. After standing at room temperature for 30 minutes, centrifugation was carried out at 1200 rpm for 3 minutes. The supernatant was removed, and primary-antibody solutions (FITC anti-CD36 antibody, PerCP anti-CD4 antibody, PE/Cy7 anti-CD8a antibody, APC anti-CD62L antibody, and APC/Cy7 anti-CD44 antibody: all manufactured by Biolegend, Inc.) were diluted with FACS buffer (1 mM EDTA, 5% FBS) and added in an amount of 50 μL/well. After standing in a dark place at 4° C. for 25 minutes, centrifugation was carried out at 1200 rpm for 3 minutes, and then the supernatant was removed. Washing was carried out twice with FACS buffer (200 μL/wells). After centrifugation, the supernatant was removed. A suspension was made with Stabilizing Fixative (manufactured by Becton, Dickinson and Company) and allowed to stand at room temperature for 10 minutes. Measurement was carried out by flow cytometry (FACS CantoII: manufactured by Becton, Dickinson and Company). Data were analyzed by use of FlowJo (manufactured by TreeStar Inc). Comparison between the NCD group and each of the drug treatment groups, or comparison among the PBS administration group, the anti-SIRPα antibody group and an anti-CD47 antibody group in each of the cell treatment groups was made in accordance with the Dunnett's multiple comparison. P value was expressed to four decimal places and the results satisfying P<0.05 (two-sided test) were determined as being significant.
Note that individual populations in the CD4-positive T cells and CD8-positive T cells were identified in the following conditions.
Tcm: central memory T cells [CD44(+) CD62L(+)]

Assay [3] concerns CT26.WT-reactive T cells in mouse spleen cells. The assay can be described thus: ELISPOT analysis of IFNγ-producing spleen cells. Format: in vivo. The protocol:
The number of CT26.WT-reactive T cells in mouse spleen cells was determined by Murine IFNγ Single-Color Enzymatic ELISPOT Assay (manufactured by […] TECHNOLOGY LIMITED), more specifically, counting of the number of IFNγ spots produced from individual spleen cells. From each of the mice used in Example 3, the spleen was harvested and the number of spleen cells was adjusted to be 1.0×10^6 cells/mL by use of CTL test medium. CT26.WT cells were treated with 10 μg/mL mitomycin C for 2 hours and washed. Thereafter, the cells were collected, adjusted to be 1.0×10^6 cells/mL by CTL test medium, and used as an antigen. The spleen cells and the antigen were added each in an amount of 100 μL/well in a PVDF-membrane plate pre-coated with an anti-IFNγ antibody and co-cultured at 37° C. for 24 hours. Thereafter, the color was developed using the attached antibody and coloring reagent and the number of IFNγ-producing spleen cells was determined. Comparison between the NCD cell inoculation group and compound (A) or MTX treatment group was made in accordance with the Wilcoxon rank sum test. P value was expressed to four decimal places and the results satisfying P<0.05 (two-sided test) were determined as being significant.

[4] abbreviates: plus anti-CD47 antibody (MIAP410) (FIG. 30A).
Setting [5] is: plus anti-CD47 antibody (MIAP410) (FIG. 30B).
Where [6] appears, read: plus anti-SIRPα antibody (5C12) (FIG. 30A).
[7] abbreviates: plus anti-SIRPα antibody (5C12) (FIG. 30B).
Setting [8] is: drug-treated CT26.WT cells inoculated, anti-SIRPα antibody (5C12) administration.

Molecules are shown by their SMILES.

Turning to `O=C1c2c(O)ccc(O)c2C(=O)c2c(NCCNCCO)ccc(NCCNCCO)c21` [MTX, Mitoxantrone, reference compound], the “CRT expression on cell surface relative to control group” value in assay [1] is “about 2.6 times”. Besides, in assay [2], the “ratio occupied by Tcm in CD4-positive T cells compared to NCD treatment group” value is given as “significantly increased”, the “ratio occupied by Tcm in CD8-positive T cells compared to NCD treatment group” value was “significantly increased”, the “ratio occupied by CD4-positive T cells in the whole cells” value is reported as “tendency to increase” and the “ratio occupied by CD8-positive T cells in the whole cells” value is “significantly increased”. Besides, in assay [2] (setting [4]), the “ratio occupied by Tcm in CD4-positive T cells compared to the _PBS group of the same drug” value is reported as “tendency to increase”. The “ratio occupied by Tcm in CD8-positive T cells compared to the _PBS group of the same drug” value in assay [2] (setting [5]) was “tendency to increase”. Further, in assay [2] (setting [6]), the “ratio occupied by Tcm in CD4-positive T cells compared to the _PBS group of the same drug” value was “tendency to increase”. For the same compound, the “ratio occupied by Tcm in CD8-positive T cells compared to the _PBS group of the same drug” value in assay [2] (setting [7]) is reported as “significantly increased”.
Regarding `CC[C@@]1(O)C(=O)OCc2c1cc1n(c2=O)Cc2c-1nc1cc(F)c(C)c3c1c2[C@@H](NC(=O)CO)CC3` [compound (A)], the “CRT expression on cell surface relative to control group” value in assay [1] was “about 12.7 times”. The “antigen specific T cell induction compared to the MTX treatment group” value in assay [3] (ELISPOT, spleen cells) is “tendency to further enhance”. Further, in assay [3] (drug-treated CT26.WT cells inoculated, PBS administration), the “number of IFNγ-producing spleen cells compared to NCD_PBS” value is “tendency to increase”. Moreover, in assay [3] (setting [8]), the “number of IFNγ-producing spleen cells compared to NCD_PBS” value was “significantly increased” and the “number of IFNγ-producing spleen cells compared to compound (A) PBS group” value was “significantly increased”. In assay [2], the “ratio occupied by Tcm in CD4-positive T cells compared to NCD treatment group” value is given as “significantly increased”, the “ratio occupied by Tcm in CD8-positive T cells compared to NCD treatment group” value is given as “significantly increased”, the “ratio occupied by CD4-positive T cells in the whole cells” value is recorded as “significantly increased” and the “ratio occupied by CD8-positive T cells in the whole cells” value was “tendency to increase”. Also, in assay [2] (setting [4]), the “ratio occupied by Tcm in CD4-positive T cells compared to the _PBS group of the same drug” value was “significantly decreased”. Further, the “ratio occupied by Tcm in CD8-positive T cells compared to the _PBS group of the same drug” value in assay [2] (setting [5]) was “significantly decreased”. Further, the “ratio occupied by Tcm in CD4-positive T cells compared to the _PBS group of the same drug” value in assay [2] (setting [6]) is on record as “tendency to increase”. The “ratio occupied by Tcm in CD8-positive T cells compared to the _PBS group of the same drug” value in assay [2] (setting [7]) is “substantially the same value”.

Values taken from patent US20230414778A1, “COMBINATION OF ANTIBODY-DRUG CONJUGATE WITH ANTI-SIRPalpha ANTIBODY” (DAIICHI SANKYO COMPANY, LIMITED, priority 2020, published 2023).
